In patent publication US7326710B2, “Aralkyl formyl-alkyl piperazine derivatives and their uses as a cerebral nerve protective agent” (Shanghai Institute of Pharmaceutical Industry, priority 2002, dated 2008):
Like-named read-outs stand apart in the source and are kept apart here.

Columns and labels:
NMDA receptor = test: Maximum contraction of isolated guinea pig longitudinal ileum muscle preparations induced by L-Glu; details: for excitation: concentration, direct excitation of the preparation; for Glu-like excited action: excite preparations directly and induce contraction; for antagonism % (restrain rate of contraction of preparations): compound 10^−5M, contraction induced by L-Glu
Description: According to the literature (Luzzi, Br J Pharmacol, 95:1271, 1988), maximum contraction of isolated longitudinal ileomuscle preparations of guinea pig induced by L-Glu, were used to examine the activities of the compounds on the NMDA receptor.

[1] = test system: anoxia induced by sodium nitrite in mice; test: Anti-cerebral anoxia in mice, anoxia induced by sodium nitrite; type: in vivo; details: sodium nitrite 225 mg/kg ip, compound 20 mg/kg sc; for ILS at 20 mg/kg: Mus musculus, sc
Description: The rates of the prolongation of 9 compounds (IV-2, 10, 23, 32, 34, 36, 39, 40, 41) were more than 50%, which indicated the effect of anti-cerebral anoxia. IV-23 and IV-2 prolonged the survival duration by 100% of the animals, showing remarkably protective action for cerebral anoxia. (Table 3)
One model was established to test the time needed for mice to die because of anoxia caused by sodium nitrite (225 mg/kg, ip). IV-23 (20 mg/kg, sc) can prolong the time for 100%, indicating significant anti-cerebral anoxic anoxia activity.

[2] = test system: focal cerebral ischemia in rats; test: Focal cerebral ischemia in rats by occlusion of middle cerebral artery (MCA); type: in vivo; details: 20 mg/kg p.o.; for Neurological deficit 24 h: 24 h after operation
Description: The focal ischemia rat model by occlusion of middle cerebral artery (MCA) was used to determine the protective effects of the compounds on focal cerebral ischemia. The infarct size after focal cerebral ischemia and the weight percentage of cerebral hemisphere were calculated to evaluate the compounds' effects on focal cerebral ischemia.

[3] = mice, read-out: Prolonging the survival duration (%)
[4] = read-out: Prolonging the survival duration (%), mice

**Q.** Which excitation (NMDA receptor; unit not given) does the source give for `O=C(CN1CCN(C(=O)c2ccccc2)CC1)c1ccccc1` [IV-1, N^1-benzoyl-N^4-phenacyl-piperazine] here?
**A.** 3 × 10^−6

**Q.** What about the Glu-like excited action (NMDA receptor) of the same molecule?
**A.** could excite preparations directly

**Q.** And the ILS at 20 mg/kg [1, 3]?
**A.** 3%

**Q.** With `O=C(CN1CCN(CC(=O)c2ccccc2)CC1)c1ccccc1` [IV-2, N^1,N^4-diphenacyl-piperazine] as the molecule, how does the “antagonism % (restrain rate of contraction of preparations)” value (NMDA receptor) read?
**A.** 25%

**Q.** With `O=C(CN1CCN(C(=O)c2ccc([N+](=O)[O-])cc2)CC1)c1ccccc1` [IV-3, N^1-(4-nitrobenzoyl)-N^4-phenacyl-piperazine] as the molecule, how does the “antagonism % (restrain rate of contraction of preparations)” value (NMDA receptor) read?
**A.** 37%

**Q.** What about the ILS at 20 mg/kg [1, 3] of the same molecule?
**A.** 7%

**Q.** Which results are given for `O=C(CN1CCN(CC(=O)c2ccc(Cl)cc2)CC1)c1ccccc1` [IV-5, N^1-phenacyl-N^4-(4-chlorophenacyl) piperazine]?
**A.** antagonism % (restrain rate of contraction of preparations) (NMDA receptor): 30%; ILS at 20 mg/kg [1, 3]: 22%

**Q.** With `O=C(CN1CCN(CC(=O)c2ccc(Cl)cc2)CC1)c1ccc(Cl)cc1` [IV-6, N^1,N^4-di (4-chlorophenacyl) piperazine] as the molecule, how does the “antagonism % (restrain rate of contraction of preparations)” value (NMDA receptor) read?
**A.** 25%

**Q.** And the ILS at 20 mg/kg [1, 3]?
**A.** 4%

**Q.** Which results are given for `O=C(CN1CCN(CC(=O)c2ccc3ccccc3c2)CC1)c1ccccc1` [IV-7, N^1-(2-naphthoylmethyl)-N^4-phenacyl-piperazine]?
**A.** antagonism % (restrain rate of contraction of preparations) (NMDA receptor): 25%; ILS at 20 mg/kg [1, 3]: 21%

**Q.** With `CC(C(=O)c1ccccc1)N1CCN(CC(=O)c2ccccc2)CC1` (stereo not drawn) [IV-8, N^1-(1-benzoylethyl)-N^4-phenacyl-piperazine] as the molecule, how does the “antagonism % (restrain rate of contraction of preparations)” value (NMDA receptor) read?
**A.** 25%

**Q.** What about the “Prolonging the survival duration (%)” value ([1]; mice) of the same molecule?
**A.** 21%

**Q.** For `COc1ccc(C(=O)CN2CCN(CC(=O)c3ccccc3)CC2)cc1` [IV-9, N^1-phenacyl-N^4-(4-methoxyphenacyl) piperazine], which excitation (NMDA receptor; unit not given) is on record?
**A.** 10^−5

**Q.** And the Glu-like excited action (NMDA receptor)?
**A.** could excite preparations directly

**Q.** What about the ILS at 20 mg/kg [1, 3] of the same molecule?
**A.** 30%

**Q.** Which excitation (NMDA receptor; unit not given) does the source give for `CC(C(=O)c1ccccc1)N1CCN(C(C)C(=O)c2ccccc2)CC1` (stereo not drawn) [IV-10, N^1,N^4-di (1-benzoylethyl) piperazine] here?
**A.** 10^−5

**Q.** What about the Glu-like excited action (NMDA receptor) of the same molecule?
**A.** could excite preparations directly

**Q.** And the ILS at 20 mg/kg [1, 4]?
**A.** > 50%

**Q.** For `O=C(CN1CCN(CC(=O)c2ccc([N+](=O)[O-])cc2)CC1)c1ccccc1` [IV-11, N^1-phenacyl-N^4-(4-nitrophenacyl) piperazine], which excitation (NMDA receptor; unit not given) is on record?
**A.** 10^−5

**Q.** What about the Glu-like excited action (NMDA receptor) of the same molecule?
**A.** could excite preparations directly

**Q.** And the ILS at 20 mg/kg [1, 3]?
**A.** 2%

**Q.** For `CC(C(=O)c1ccccc1)N1CCN(CC(=O)c2ccccc2)CC1` (stereo not drawn) [IV-13, N^1-(1-benzoylethyl)-N^4-phenacyl-piperazine], which ILS at 20 mg/kg [1, 4] is on record?
**A.** 32%

**Q.** How did the ILS at 20 mg/kg [1, 4] turn out when `COc1ccc(C(=O)CN2CCN(C(=O)Cc3ccccc3O)CC2)cc1` [IV-16, N^1-(4-methoxyphenacyl)-N^4-[(2-hydroxy)phenylacetyl] piperazine] was run?
**A.** 30%

**Q.** How did the ILS at 20 mg/kg [1, 4] turn out when `CC(C(=O)c1ccccc1)N1CCN(C(=O)C(O)c2ccc(Cl)cc2)CC1` (stereo not drawn) [IV-17, N^1-(1-benzoylethyl)-N^4-[2-hydroxy-2-(4-chlorophenyl)acetyl] piperazine] was run?
**A.** 14%

**Q.** With `CC(C(=O)c1ccccc1)N1CCN(C(=O)Cc2ccccc2O)CC1` (stereo not drawn) [IV-18, N^1-(1-benzoylethyl)-N^4-[(2-hydroxy)phenylacetyl] piperazine] as the molecule, how does the ILS at 20 mg/kg [1, 4] read?
**A.** 25%

**Q.** With `O=C(CN1CCN(C(=O)C(O)c2ccc(Cl)cc2)CC1)c1ccccc1` (stereo not drawn) [IV-19, N^1-phenacyl-N^4-[2-hydroxy-2-(4-chlorophenyl)acetyl] piperazine] as the molecule, how does the ILS at 20 mg/kg [1, 3] read?
**A.** 18%

**Q.** What does the source list for `COc1ccc2cc(C(=O)C(C)N3CCN(CC(=O)c4ccccc4)CC3)ccc2c1Cl` (stereo not drawn) [IV-20, N^1-phenacyl-N^4-[1-(5-chloro-6-methoxy-2-naphthoyl)ethyl]piperazine]?
**A.** Infarct volume [2]: 0.14 ± 0.04 g; Neurological deficit After operation [2]: 9.5 ± 0.6; Percentage of infarct volume (%) [2]: 18.80 ± 5.61 %; Neurological deficit 24 h [2]: 8.8 ± 1.3

**Q.** What does the source list for `O=C(CN1CCN(CC=Cc2ccccc2)CC1)NCc1ccccc1` [IV-21, N1-[2-(benzylamino)-2-oxo-ethyl]-N^4-cinnamyl piperazine]?
**A.** Infarct volume [2]: 0.12 ± 0.07 g; Neurological deficit After operation [2]: 9.8 ± 0.5; Percentage of infarct volume (%) [2]: 15.53 ± 8.27 %; Neurological deficit 24 h [2]: 6.8 ± 2.5; ILS at 20 mg/kg [1, 3]: 33%

**Q.** Which ILS at 20 mg/kg [1, 3] does the source give for `O=C(CN1CCN(CC(=O)c2ccccc2)CC1)Nc1ccccc1` [IV-24, N^1-phenacyl-N^4-[2-(phenylamino)-2-oxo-ethyl] piperazine] here?
**A.** 34%

**Q.** For `O=C(CN1CCN(CC(=O)NCc2ccccc2)CC1)NCc1ccccc1` [IV-25, N^1,N^4-di[2-(benzylamino)-2-oxo-ethyl] piperazine], which ILS at 20 mg/kg [1, 3] is on record?
**A.** 30%

**Q.** For `CC(C(=O)c1ccccc1)N1CCN(CC(=O)NCc2ccccc2)CC1` (stereo not drawn) [IV-26, N^1-(1-benzoylethyl)-N^4-[2-(benzylamino)-2-oxo-ethyl] piperazine], which ILS at 20 mg/kg [1, 4] is on record?
**A.** 36%

**Q.** For `O=C(CN1CCN(CC(=O)c2ccccc2)CC1)NCc1ccc2c(c1)OCO2` [IV-32, N^1-phenacyl-N^4-[2-(3,4-methylenedioxybenzylamino)-2-oxo-ethyl] piperazine], which ILS at 20 mg/kg [1, 3] is on record?
**A.** > 50%

**Q.** What does the source list for `COc1ccc2cc(C(=O)C(C)N3CCN(CC(=O)NCc4ccccc4)CC3)ccc2c1Cl` (stereo not drawn) [IV-33, N^1-[1-(5-chloro-6-methoxy-2-naphthoyl)ethyl]-N^4-[2-(benzylamino)-2-oxo-ethyl] piperazine]?
**A.** Infarct volume [2]: 0.12 ± 0.04 g; Neurological deficit After operation [2]: 9.6 ± 0.6; Neurological deficit 24 h [2]: 8.4 ± 1.5

**Q.** For `O=C(c1ccccc1)N1CCN(CC(O)c2ccccc2)CC1` (stereo not drawn) [IV-34, N^1-benzoyl-N^4-(2-phenylethyl-2-ol) piperazine], which “antagonism % (restrain rate of contraction of preparations)” value (NMDA receptor) is on record?
**A.** 25%

**Q.** With `O=C(c1ccc([N+](=O)[O-])cc1)N1CCN(CC(O)c2ccccc2)CC1` (stereo not drawn) [IV-35, N^1-(4-nitrobenzoyl)-N^4-(2-phenylethyl-2-ol) piperazine] as the molecule, how does the excitation (NMDA receptor; unit not given) read?
**A.** 3 × 10^−5

**Q.** What about the Glu-like excited action (NMDA receptor) of the same molecule?
**A.** could excite preparations directly

**Q.** And the “Prolonging the survival duration (%)” value ([1]; mice)?
**A.** 42%

**Q.** Which “Prolonging the survival duration (%)” value ([1]; mice) does the source give for `O=C(CN1CCN(CC(O)c2ccccc2)CC1)NCc1ccccc1` (stereo not drawn) [IV-37, N^1-[2-(benzylamino)-2-oxo-ethyl]-N^4-(2-phenylethyl-2-ol) piperazine] here?
**A.** 13%

**Q.** How did the “Prolonging the survival duration (%)” value ([1]; mice) turn out when `CC(C(=O)c1ccccc1)N1CCN(C(=O)[C@@H](O)c2ccccc2)CC1` (stereo partly drawn) [IV-44, N^1-(S-2-hydroxy-1-oxo-2-phenylethyl)-N^4-(1-benzoylethyl) piperazine] was run?
**A.** 3%

**Q.** How did the ILS at 20 mg/kg [1, 3] turn out when `N#Cc1cccc(CS(=O)(=O)N2CCN(CC(=O)c3ccccc3)CC2)c1` [IV-48, N^1-phenacyl-N^4-(3-cyanophenylmethylsulfonyl) piperazine] was run?
**A.** 16%

**Q.** With `COc1ccc2cc(C(=O)C(C)N3CCN(CC(=O)NC(C)c4ccccc4)CC3)ccc2c1Cl` (stereo not drawn) [IV-49, N^1-[1-(5-chloro-6-methoxy-2-naphthoyl)ethyl]-N^4-[2-(1-phenylethanamino)-2-oxo-ethyl] piperazine] as the molecule, how does the “Prolonging the survival duration (%)” value ([1]; mice) read?
**A.** 30%

**Q.** With `O=C(CN1CCN(S(=O)(=O)Cc2ccc(Oc3ccccc3)cc2)CC1)c1ccccc1` [IV-53, N^1-phenacyl-N^4-(4-phenoxybenzylsulfonyl) piperazine] as the molecule, how does the ILS at 20 mg/kg [1, 3] read?
**A.** 15%

**Q.** With `O=C(CN1CCN(S(=O)(=O)Cc2ccccc2CS(=O)(=O)c2ccccc2)CC1)c1ccccc1` [IV-54, N^1-phenacyl-N^4-[2-(benzenesulfonylmethyl)benzylsulfonyl] piperazine] as the molecule, how does the ILS at 20 mg/kg [1, 3] read?
**A.** 25%

**Q.** `O=C(CN1CCN(S(=O)(=O)Cc2ccc(C(F)(F)F)cc2)CC1)c1ccccc1` [IV-55, N^1-phenacyl-N^4-(4-trifluoromethylbenzylsulfonyl) piperazine] was tested. Which ILS at 20 mg/kg [1, 3] did it give?
**A.** 4%

**Q.** Which ILS at 20 mg/kg [1, 3] does the source give for `O=C(CN1CCN(S(=O)(=O)Cc2ccc(-c3ccccc3)cc2)CC1)c1ccccc1` [IV-56, N^1-phenacyl-N^4-(4-phenylbenzylsulfonyl) piperazine] here?
**A.** 25%

**Q.** For `N#Cc1ccccc1-c1ccc(CS(=O)(=O)N2CCN(CC(=O)c3ccccc3)CC2)cc1` [IV-58, N^1-phenacyl-N^4-[4-(2-cyanophenyl)benzylsulfonyl] piperazine], which ILS at 20 mg/kg [1, 3] is on record?
**A.** 25%

**Q.** How did the ILS at 20 mg/kg [1, 3] turn out when `N#Cc1ccccc1-c1ccc(CS(=O)(=O)N2CCN(CC(=O)NCc3ccccc3)CC2)cc1` [IV-61, N^1-[2-(benzylamino)-2-oxo-ethyl]-N^4-[4-(2-cyanophenyl)benzylsulfonyl] piperazine] was run?
**A.** 22%

**Q.** `O=C(CN1CCN(S(=O)(=O)Cc2ccccc2CS(=O)(=O)c2ccccc2)CC1)NCc1ccccc1` [IV-62, N^1-[2-(benzylamino)-2-oxo-ethyl]-N^4-[2-(benzenesulfonylmethyl)benzylsulfonyl] piperazine] was tested. Which ILS at 20 mg/kg [1, 3] did it give?
**A.** 36%

**Q.** How did the ILS at 20 mg/kg [1, 3] turn out when `O=C(CN1CCN(S(=O)(=O)Cc2ccc([N+](=O)[O-])cc2)CC1)NCc1ccccc1` [IV-64, N^1-[2-(benzylamino)-2-oxo-ethyl]-N^4-(4-nitrobenzylsulfonyl) piperazine] was run?
**A.** 20%

**Q.** For `CC(C(O)c1ccc(O)cc1)N1CCC(Cc2ccccc2)CC1` (stereo not drawn) [Ifenprodil, reference compound], which “antagonism % (restrain rate of contraction of preparations)” value (NMDA receptor) is on record?
**A.** 41%(10^−5)

**Q.** With `CNC1(c2ccccc2Cl)CCCCC1=O` (stereo not drawn) [Ket, Ketamine, reference compound] as the molecule, how does the “antagonism (value printed as a concentration in the antagonism % column)” value (NMDA receptor; positive control, unit not given) read?
**A.** 5.61 × 10^−7

**Q.** How did the excitation (NMDA receptor; unit not given) turn out when `N[C@@H](CCC(=O)O)C(=O)O` [L-Glu, reference compound] was run?
**A.** 3.89 × 10^−5
